Measured values taken from PubChem BioAssay AID179 (DTP/NCI, 2004).
Active and inactive are the calls of the source.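 How the source made its calls: active means compounds giving half or more protection of infected cells from virus-caused growth loss, again on retest; inactive means the rest.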

Tested on: CEM cells HIV-1 protection, formazan growth assay
Experiment: NCI AIDS Antiviral Assay
Settings: for IC50: measured here: growth of uninfected CEM cells
How it was run: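 Protection of CEM cells against HIV-1 measured as cell growth via soluble formazan read-out, with five concentrations tested on both infected and uninfected cells; failure to protect may reflect toxicity.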

SMILES	EC50 [µM]	IC50 [µM]	outcome
CC(=O)OC12c3ccccc3-c3ccccc3C1C(C(=O)O)C2(Cl)C(=O)O (configuration not stated)	> 646	355	
C(=Nc1cnc2ccccc2c1)c1ccncc1	> 288	66.1	
CC1(Cl)CCC2(CC(Br)=CC3OC32C)CC1Br (configuration not stated)			inactive
CC1=C2CC(C)(C)CC(=O)C2(C)CCC1=O (configuration not stated)			inactive
NNC(=O)C(=O)N/N=C1/CCCC1C(=O)CCC(=O)Nc1ccc(Cl)cc1 (configuration not stated)	> 66.1	> 66.1	
CC(C)=CC1CC(n2cc(C)c(=O)[nH]c2=O)ON1CCO (configuration not stated)	> 200	> 200	
O=C1CCN(CCC(F)(F)C(F)(F)C(F)(F)C(F)(F)C(F)(F)C(F)(F)F)C(=S)N1CCC(F)(F)C(F)(F)C(F)(F)C(F)(F)C(F)(F)C(F)(F)F	> 16.6	> 16.6	
S=C(Nc1ccc(Br)cn1)NC12CC3CC(CC(C3)C1)C2	> 200	69.2	
CCN(CC)CCN(C(=O)C(C)(C)C)c1ccccc1N	> 200	> 200	
O=C1/C(=C/c2ccccc2)CN(C(=O)C(F)(F)F)C/C1=C\c1ccccc1			inactive
Cc1cccc(C=NC23CC4CC(CC(C4)C2)C3)c1	> 102	> 102	
COc1cc2c3c(c1)nc(C)n3C(=O)C(c1ccccc1)S2 (configuration not stated)			inactive
O=C1C(=Cc2cccc(F)c2)C(=O)c2ccccc21	> 20.9	> 20.9	
CCCCN(CCCC)CCCn1cnc2ncccc2c1=O			inactive
CC(NC(=O)C(N)CC(=O)O)NC(=O)C1CCC1 (configuration not stated)	> 200	> 200	
COc1cc2c3c(c1)nnn3C(=O)C(c1ccccc1)S2 (configuration not stated)	> 200	> 200	
C=C1c2nc3ccccc3n2C=C(c2ccc(C)cc2)N1c1ccc(OC)cc1	> 200	11.5	
O=C(NNC(=S)NC1OC(CO)C(O)C(O)C1O)c1cccc(C(=O)NNC(=S)NC2OC(CO)C(O)C(O)C2O)n1 (configuration not stated)		> 200	
CC(C)CCCC(C)[C@H]1CC[C@H]2[C@@H]3CC[C@H]4C[C@@H](CCC=C(c5cc(Cl)c(OCc6cccc([N+](=O)[O-])c6)c(C(=O)O)c5)c5cc(Cl)c(OCc6cccc([N+](=O)[O-])c6)c(C(=O)O)c5)CC[C@]4(C)[C@H]3CC[C@]12C (some centres not stated)	95.5	> 200	
c1csc(-c2nc3sc(-c4cccs4)nc3s2)c1			inactive
CCOc1c(Cc2ccccc2)c(=O)nc2c(-c3ccccc3)cncn12	> 200	42.7	
N#CSC1CCCCCCC1SC#N (configuration not stated)	> 200	10.5	

SMILES	EC50 [µM]	IC50 [µM]	outcome
COc1ccc(NC2(Br)C(=O)NC(=O)NC2C(=O)O)cc1 (configuration not stated)	> 20	> 20	
CCc1cccc(C(C)C)c1NC(=O)C(=O)C1C(=O)Nc2ccccc2S1=O (configuration not stated)	> 91.2	> 91.2	
Nc1nc(=S)[nH]c2n[nH]nc12	> 200	> 200	
CCOc1ccccc1NC(=O)C(=O)C(C(=O)c1ccc2ccccc2c1)C1OC(=O)c2ccccc21 (configuration not stated)	> 72.4	31.6	
O=C(CCn1[nH]c(=O)c(Cl)c(Cl)c1=O)NOCCCc1ccccc1	> 646	> 646	
COc1cc(OC)c2c(O)c3c(c(-c4ccc5cc6c(c(O)c5c4O)C(=O)CC(C)(O)C6)c2c1)CC(C)OC3C (configuration not stated)			inactive
O=C(Nc1cc2c(oc1=O)CCC2)c1cnccn1	> 100	> 100	
COc1ccc(NC(=O)C(=O)C(C(=O)c2ccccc2)C2OC(=O)c3ccccc32)c([N+](=O)[O-])c1 (configuration not stated)	> 135	> 135	
Cn1c(=O)c2nc(-c3ccccc3)nnc2n(CCO)c1=O	> 200	41.7	
COc1ccc(OC)c(-c2cn3c(n2)sc2ccccc23)c1	> 200	50.1	
CCCCCCCCCCCCCCCC(=O)OCCOCCOCCOCCOCCOC(=O)CCCCCCCCCCCCCCC			inactive
CS1(C)=Nc2c([N+](=O)[O-])cc([N+](=O)[O-])cc2S(=O)(=O)N=1	> 112	58.9	
C=C1C(=O)O[C@H]2C[C@@]3(COC(C)=O)C=COC=C(COC(=O)C(C)C)C3CC12 (some centres not stated)	> 200	30.9	
Cn1c(=O)c2c([nH]c(=O)n2C)n(C)c1=O	> 200	> 200	
N#CC(C#N)=Cc1ccccc1F	> 102	17.4	
Cn1cc(NC(=O)c2cc(NC(=O)CCCCCCC(=O)Nc3cc(C(=O)Nc4cc(C(=O)NCCC(=N)N)n(C)c4)n(C)c3)cn2C)cc1C(=O)NCCC(=N)N	> 204	35.5	
Cc1cc(=O)oc2cc(SC(=O)N(C)C)ccc12	> 200	> 200	
COc1ccc(SCc2cc(OC)ccc2OC)cc1	> 200	3.98	
COC1/C=C/OC2(C)Oc3c(C)c(O)c4c(O)c(c(/C=N/N5C(C)CN(Cc6ccc(O)cc6)CC5C)c(O)c4c3C2=O)NC(=O)C(C)=C/C=C/C(C)C(O)C(C)C(O)C(C)C(OC(C)=O)C1C (configuration not stated)	> 200	7.94	
NC1=NN(c2ccccc2)C(=O)C1/C(=N\NC(=O)c1cc2ccccc2cc1O)C(=O)Nc1ccc(Cl)c(Cl)c1 (configuration not stated)	> 45.7	> 45.7	
CC(C)COC(=O)c1ccc(N)cc1	> 200	> 200	
